Reference: patent US20250084039A1, “4-SUBSTITUTED AMINOISOQUINOLINE DERIVATIVES” (Purdue Research Foundation, priority 2016, published 2025)
Read-outs that look alike come from different tables or passages of the source.

Assays:
Format in all cases: cell-based
K562 = assay: IC50 proliferation assay (Alamar Blue, 72 h)
Procedure: IC50 proliferation assay—Cell lines and primary cells were seeded into 96-well plates the afternoon prior to treatment. Approximately 18 hours later, compounds were semi-serially diluted in dimethyl sulfoxide (DMSO) and then growth medium, and added to cells. Plates were incubated for 72 hours prior to addition of Alamar Blue (Life Technologies, Carlsbad, CA). Plates were read after 4 additional hours of incubation at 37° C. using a Bio-Tek Synergy HT plate reader (Bio-Tek, Winooski, VT). Data was analyzed and graphed using GraphPad Prism Software (Graphpad, La Jolla. CA).
IC50 (proliferation inhibition) against leukemia cell lines MV4-11 and K562. […] MiaPaca-2 (Pancreatic cell line), HLY-1 (Lymphoma cell line), MV4-11 (AML, cell line) and K562 (CML cell line).

MV4-11 = assay: Activity against AML cell line MV4-11 (CellTiter-Blue, 72 h)
Procedure: Cells were added to 96 well plates at 2000 cells per well for adherent lines and 4000 cells per well for suspension lines and kept in an incubator overnight. The following day the plates were treated with compounds to give rise to the final concentrations of; 100 μM, 10 μM, 5 μM 1 μM, 500 nM, 100 nM, 10 nM, […]. The plates were then stored in the incubator for 72 hours. On the third day the cells were assayed with 20 μL of CellTiter—Blue Cell Viability Assay per well and were incubated for 4 hours. After 4 hours' fluorescence intensity was taken on a plate reader: Excitation: 560/10 Emission: 590/10. IC50 analysis was performed on GraphPad Prism 7.

MV-4-11 = assay: Proliferation inhibition at single concentration (CellTiter-Blue); conditions: 1 μM compound
HCT116 = assay: as above; conditions: 1 μM compound
MCF-7 = assay: as above; conditions: for Percent inhibition of proliferation MCF-7: 1 μM compound
Procedure: (§1) Plates were then treated with compound diluted in dimethyl sulfoxide (DMSO) as well as a DMSO control the following day for 72 hours. After this time the plates were then treated with 10 μL of CellTiter-Blue Cell Viability Assay (Promega, Madison, WI) for 4 hours. Then the plates were read on a plate reader (Bio-Tek, Winooski, VT). Data was analyzed on Excel as a percent of the DMSO vehicle.
(§2) Antiproliferative activities against AML cell line, MV4-11 (a FLT3-driven cell line) and three other solid tumors (MCF7, breast, HCT116, colon and HeLa) have been investigated (Tables 6A and 6B and FIG. 10).

HeLa = assay: as above; conditions: for Percent inhibition of proliferation HeLa: 1 μM compound
Procedure: as §1, §2

[1] = Table 18, read-out: Inhibition of proliferation of K562 cell lines (CML)
[2] = 72 h, read-out: IC50 against MV4-11/uM
[3] = Homo sapiens, K562, Table 18, read-out: Inhibition of proliferation of K562 cell lines (CML)
[4] = FIG. 1, read-out: anticancer activities (IC50) against MV4-11

Row | SMILES | Percent inhibition of proliferation MV-4-11 (MV-4-11) [%] | Percent inhibition of proliferation HCT116 (HCT116) [%] | Percent inhibition of proliferation MCF-7 (MCF-7) [%] | Percent inhibition of proliferation HeLa (HeLa) [%] | also measured
1 | Cc1ccc(C(=O)NCCN2CCCC2)cc1C#Cc1c(N)ncc2ccc(Cl)cc12 [HSL41] |  |  |  |  | IC50 (K562; [1]): 30.1 ± 0.19 nM
2 | Nc1ncc2ccc(Cl)cc2c1C#Cc1ccc(C(=O)N[C@H]2CC[C@H](N)CC2)cc1.O=C(O)C(F)(F)F [HSN129] | 99 | 29 | 37 | 22 | IC50 (MV4-11; [2]): 0.008 µM
3 | CCN(CC)CC(O)CNC(=O)c1cccc(C#Cc2c(N)ncc3ccc(Cl)cc23)c1 (centres unmarked) [HSN189] | 95 | 7 | 49 | 18 | 
4 | Nc1ncc2ccc(Cl)cc2c1C#Cc1ccccc1C(=O)NCCCN1CCCCC1 [HSM1717] | 82 | 33 | 76 | 2 | IC50 (MV4-11; [2]): 0.05 µM
5 | COc1cc2nc(N)nc(C#Cc3cc(C(=O)NCc4ccc(OCCN(C)C)cc4)ccc3C)c2cc1OC [HSN317, 3-((2-amino-6,7-dimethoxyquinazolin-4-yl)ethynyl)-N-(4-(2-(dimethylamino)ethoxy)benzyl)-4-methylbenzamide] |  |  |  |  | IC50 (K562; Homo sapiens, K562, 72 h, read-out: IC50 (proliferation inhibition) Cell line - K562): 1480 nM; IC50 (K562; [3]): 1483 ± 0.1 nM
6 | CN(C)CCNC(=O)c1ccc(C#Cc2c(N)ncc3ccc(Cl)cc23)cc1 [HSM1669] | 83 | 46 | 98 | 20 | IC50 (MV4-11; [2]): 0.26 µM; IC50 (MV4-11; [4]): 0.26 µM
7 | COCCCNC(=O)c1ccc(C#Cc2c(N)ncc3ccc(Cl)cc23)cc1 [HSM1692] | 81 | 29 | 22 | 0 | IC50 (MV4-11; [2]): 0.45 µM; IC50 (MV4-11; [4]): 0.45 µM
8 | Nc1ncc2ccc(Cl)cc2c1C#Cc1ccc(C(=O)NCC(O)CN2CCCC2)cc1 (centres unmarked) [HSM1750] | 93 | 20 | 17 | 11 | 
9 | NCCNC(=O)c1ccc(C#Cc2c(N)ncc3ccc(Cl)cc23)cc1 [HSN204] | 77 | 21 | 20 | 22 | 
10 | CCN(CC)CC(O)CNC(=O)c1ccc(C#Cc2c(N)ncc3ccc(Cl)cc23)cc1 (centres unmarked) [HSN184] | 97 | 38 | 92 | 51 | 
11 | Nc1ncc2ccc(Cl)cc2c1C#Cc1ccc(C(=O)NCCc2c[nH]cn2)cc1 [HSN145] | 99 | 35 | 6 | 11 | 
12 | CC(C)(C)OC(=O)NC1CCN(C(=O)c2ccc(C#Cc3c(N)ncc4ccc(Cl)cc34)cc2)CC1 [HSN139] | 95 | 32 | 60 | 35 | 
13 | CCN(CC)CC(O)CNC(=O)c1ccc(C)c(C#Cc2c(N)ncc3ccc(Cl)cc23)c1 (centres unmarked) [HSN185] | 97 | 67 | 100 | 99 | 
14 | Nc1ncc2ccc(Cl)cc2c1C#Cc1cccc(C(=O)N2CCC(N)CC2)c1.O=C(O)C(F)(F)F [HSN174] | 85 | 28 | 40 | 10 | 
15 | Cc1ccc(C(=O)NCCN2CCN(C)CC2)cc1C#Cc1c(N)ncc2ccc(Cl)cc12 [HSL47] |  |  |  |  | IC50 (K562; [1]): 161.1 ± 0.11 nM
16 | Cc1ccc(C(=O)Nc2ccc(CN3CCN(C)CC3)c(C(F)(F)F)c2)cc1C#Cc1c(N)ncc2cc(Cl)c(Cl)cc12 [HSN393, 3-((3-amino-6,7-dichloroisoquinolin-4-yl)ethynyl)-4-methyl-N-(4-((4-methylpiperazin-1-yl)methyl)-3-(trifluoromethyl)phenyl)benzamide] |  |  |  |  | IC50 (K562; [3]): 7.3 ± 0.04 nM
17 | Nc1ncc2ccc(Cl)cc2c1C#Cc1ccc(C(=O)NCCCN2CCOCC2)cc1 [HSM1610] | 90 | 39 | 29 | 20 | 
18 | CN1CCN(Cc2ccc(NC(=O)c3ccc(C#Cc4c(N)ncc5ccc(Cl)cc45)cc3)cc2)CC1 [HSM1661] | 90 | 0 | 96 | 1 | IC50 (MV4-11; [2]): 0.016 µM

Row | SMILES | Percent inhibition of proliferation MV-4-11 (MV-4-11) [%] | Percent inhibition of proliferation HCT116 (HCT116) [%] | Percent inhibition of proliferation MCF-7 (MCF-7) [%] | Percent inhibition of proliferation HeLa (HeLa) [%] | also measured
19 | Nc1ncc2ccc(Cl)cc2c1C#Cc1ccc(C(=O)N2CCC3(CCNCC3)CC2)cc1 [HSM1773] | 93 | 24 | 43 | 24 | 
20 | CN(C)CCOc1ccc(CNC(=O)c2ccc(C#Cc3c(N)ncc4ccc(Cl)cc34)cc2)cc1 [HSN99] | 97 | 20 | 42 | 6 | 
21 | Cc1ccc(C(=O)NCCN2CCOCC2)cc1C#Cc1c(N)ncc2ccc(Cl)cc12 [HSL43] |  |  |  |  | IC50 (K562; [1]): 10.1 ± 0.1 nM
22 | Nc1ncc2ccc(Cl)cc2c1C#Cc1cccc(C(=O)NCC(O)CN2CCCC2)c1 (centres unmarked) [HSM1751] | 91 | 32 | 47 | 23 | 
23 | Cc1ccc(C(=O)NCCN2CCCCC2)cc1C#Cc1cnc2cccnn12 [HSL44] |  |  |  |  | IC50 (K562; [1]): 43.5 ± 0.14 nM
24 | Nc1ncc2ccc(Cl)cc2c1C#Cc1ccc(C2=NC(C3CC3)CN2)cc1 (centres unmarked) [Compound 1703] |  |  |  |  | activity against MCF-7 in words (MCF-7; FIG. 2): potent; activity against HeLa in words (HeLa; FIG. 3): potent
25 | Cc1ccc(C(=O)NCCCN2CCCCC2)cc1C#Cc1c(N)ncc2ccc(Cl)cc12 [HSL56] |  |  |  |  | IC50 (K562; [1]): 95.4 ± 0.23 nM
26 | CN(C)CC(O)CNC(=O)c1cccc(C#Cc2c(N)ncc3ccc(Cl)cc23)c1 (centres unmarked) [HSN161] | 97 | 18 | 91 | 70 | 
27 | CN(C)CCCCCNC(=O)c1ccc(C#Cc2c(N)ncc3ccc(Cl)cc23)cc1 [HSM1684] |  |  |  |  | IC50 (MV4-11; [2]): 0.071 µM; IC50 (MV4-11; [4]): 0.071 µM
28 | Nc1ncc2ccc(Cl)cc2c1C#Cc1ccc(C(=O)NCC(O)CN2CCCCC2)cc1 (centres unmarked) [HSM1725] |  |  |  |  | IC50 (MV4-11; [2]): 0.008 µM
29 | CC(C)(C)OC(=O)N1CCN(CCCNC(=O)c2ccc(C#Cc3c(N)ncc4ccc(Cl)cc34)cc2)CC1 [HSM1693] |  |  |  |  | IC50 (MV4-11; [2]): 0.03 µM; IC50 (MV4-11; Table 2, read-out: IC50 (nM) against MV4-11 (AML cell line)): 0.0148 ± 0.0014 µM
30 | NCC(O)CNC(=O)c1ccc(C#Cc2c(N)ncc3ccc(Cl)cc23)cc1 (centres unmarked) [HSN177] | 91 | 15 | 46 | 1 | 
31 | N#Cc1cccc(C#Cc2c(N)ncc3ccc(Cl)cc23)c1 [HSM1617] |  |  |  |  | IC50 (MV4-11; [2]): 0.77 µM
32 | Cc1ccc(C(=O)NCCN2CCCCC2)cc1C#Cc1cnc(N)c2ncccc12 [HSL45] |  |  |  |  | IC50 (K562; [1]): 25.3 ± 0.1 nM
33 | O=C(NCCCN1CCCCC1)c1ccc(C#Cc2cncc3ccccc23)cc1 [HSM1690] |  |  |  |  | IC50 (MV4-11; [2]): 3.09 µM
34 | Cc1ccc(C(=O)NCCN2CCCCC2)cc1C#Cc1cnc(N)c2ccccc12 [HSL58] |  |  |  |  | IC50 (K562; [1]): 94.5 ± 0.1 nM
35 | Nc1ncc2ccc(Cl)cc2c1C#Cc1cccc(C(=O)NCCc2c[nH]cn2)c1 [HSN157] | 96 | 12 | 21 | 33 | 
36 | Cc1ccc(C(=O)Nc2ccc(CN3CCN(C)CC3)c(C(F)(F)F)c2)cc1C#Cc1c(N)nc(C)c2ccccc12 [HSN375, 3-((3-amino-1-methylisoquinolin-4-yl)ethynyl)-4-methyl-N-(4-((4-methylpiperazin-1-yl)methyl)-3-(trifluoromethyl)phenyl)benzamide] |  |  |  |  | IC50 (K562; [3]): 8.8 ± 0.4 nM
